Laboratory results taken from PubChem BioAssay AID330 (DTP/NCI, 2004).
Where “and” joins values, the source holds several entries; their conditions need not be identical. Identical values can stand only once. Toxic doses and inconclusive results are not listed.

System: P388 leukemia ip, CD2F1 mice, survival T/C
Assay: NCI In Vivo Anticancer Drug Screen. Data for tumor model P388 Leukemia (intraperitoneal) in CD2F1 (CDF1) mice
Conditions: endpoint: median survival time, higher = longer survival
How it was run: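 Mice carrying the transplanted tumor received test compound or vehicle. Survival was recorded in each group, and the value is the treated-group measurement divided by that of the vehicle-treated control group.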

[1] = dose: 100.0 mg/kg/injection, schedule: Q04DX002 (ip), vehicle: saline
[2] = dose: 200.0 mg/kg/injection, schedule: Q04DX002 (ip), vehicle: saline
[3] = dose: 400.0 mg/kg/injection, schedule: Q04DX002 (ip), vehicle: saline
[4] = dose: 50.0 mg/kg/injection, schedule: Q01DX005 (ip), vehicle: saline with Tween-80
[5] = dose: 100.0 mg/kg/injection, schedule: Q01DX005 (ip), vehicle: saline with Tween-80
[6] = dose: 50.0 mg/kg/injection, schedule: Q01DX009 (ip), vehicle: Klucel (hydroxypropylcellulose) (HPC)
[7] = dose: 100.0 mg/kg/injection, schedule: Q01DX009 (ip), vehicle: Klucel (hydroxypropylcellulose) (HPC)
[8] = dose: 50.0 mg/kg/injection, schedule: Q01DX009 (ip), vehicle: suspension in saline
[9] = dose: 100.0 mg/kg/injection, schedule: Q01DX009 (ip), vehicle: suspension in saline
[10] = dose: 200.0 mg/kg/injection, schedule: Q01DX009 (ip), vehicle: suspension in saline
[11] = dose: 50.0 mg/kg/injection, schedule: Q01DX009 (ip), vehicle: saline with Tween-80
[12] = dose: 200.0 mg/kg/injection, schedule: Q01DX005 (ip), vehicle: saline with Tween-80

CC(=O)C(C(C)=O)=[Se](c1ccccc1)c1ccccc1
T/C [1]: 99 % of control
T/C [2]: 100 % of control
T/C [3]: 99 % of control

O=C(O)c1ccc(S(=O)(=O)OCCCl)cc1
T/C (dose: 6.25 mg/kg/injection, schedule: Q01DX009 (ip), vehicle: Klucel (hydroxypropylcellulose) (HPC)): 107 % of control
T/C (dose: 12.5 mg/kg/injection, schedule: Q01DX009 (ip), vehicle: Klucel (hydroxypropylcellulose) (HPC)): 100 % of control
T/C (dose: 25.0 mg/kg/injection, schedule: Q01DX009 (ip), vehicle: Klucel (hydroxypropylcellulose) (HPC)): 110 % of control

S=c1[nH]cc2cnccn12
T/C (dose: 50.0 mg/kg/injection, schedule: Q04DX003 (ip), vehicle: saline with Tween-80): 100 % of control
T/C (dose: 100.0 mg/kg/injection, schedule: Q04DX003 (ip), vehicle: saline with Tween-80): 110 % of control
T/C (dose: 200.0 mg/kg/injection, schedule: Q04DX003 (ip), vehicle: saline with Tween-80): 110 % of control

O=C1OC(C2=CC(=O)c3ccccc3C2=O)C(Cl)=C1Cl (centres undefined)
T/C [4]: 121 % of control
T/C [5]: 109 % of control

Cc1noc2c1NC(=O)OCC2
T/C (dose: 50.0 mg/kg/injection, schedule: Q01DX005 (ip), vehicle: Klucel (hydroxypropylcellulose) (HPC)): 101 % of control
T/C (dose: 100.0 mg/kg/injection, schedule: Q01DX005 (ip), vehicle: Klucel (hydroxypropylcellulose) (HPC)): 95 % of control
T/C (dose: 200.0 mg/kg/injection, schedule: Q01DX005 (ip), vehicle: Klucel (hydroxypropylcellulose) (HPC)): 97 % of control

CCN1C2=NCCN2C(=O)c2ccccc21
T/C [6]: 97 % of control
T/C [7]: 97 % of control

O=[N+]([O-])c1ccc(-c2csc(=[N+]3CCCCC3)s2)cc1
T/C (dose: 6.25 mg/kg/injection, schedule: Q01DX009 (ip), vehicle: water): 106 % of control and 114 % of control
T/C (dose: 12.5 mg/kg/injection, schedule: Q01DX009 (ip), vehicle: water): 114 % of control

CC1(C)CNC(=S)N1C1CCCCC1
T/C [8]: 97 % of control
T/C [9]: 104 % of control
T/C [10]: 93 % of control

O=C(OC(C(F)(F)F)C(F)(F)F)c1ccccc1
T/C (dose: 100.0 mg/kg/injection, schedule: Q04DX003 (ip), vehicle: Klucel (hydroxypropylcellulose) (HPC)): 105 % of control
T/C (dose: 200.0 mg/kg/injection, schedule: Q04DX003 (ip), vehicle: Klucel (hydroxypropylcellulose) (HPC)): 101 % of control
T/C (dose: 400.0 mg/kg/injection, schedule: Q04DX003 (ip), vehicle: Klucel (hydroxypropylcellulose) (HPC)): 109 % of control

C(=N\Nc1nn[nH]n1)/c1ccccc1
T/C [8]: 98 % of control
T/C [9]: 97 % of control
T/C [10]: 104 % of control

CCCCCCOCCN1CCN(CCCN2c3ccccc3Sc3ccc(C(F)(F)F)cc32)CC1
T/C (dose: 3.12 mg/kg/injection, schedule: Q01DX009 (ip), vehicle: saline with Tween-80): 100 % of control

Cc1ccc2c(C(=O)O)cc(-c3ccc4c(c3)OCO4)nc2c1
T/C [6]: 98 % of control
T/C [7]: 98 % of control
T/C (dose: 200.0 mg/kg/injection, schedule: Q01DX009 (ip), vehicle: Klucel (hydroxypropylcellulose) (HPC)): 106 % of control

COc1cc2c(cc1C/C=C/c1cc(OC)c(OC)c(OC)c1)OCO2
T/C (dose: 60.0 mg/kg/injection, schedule: Q01DX005 (ip), vehicle: saline with Tween-80): 93 % of control
T/C (dose: 120.0 mg/kg/injection, schedule: Q01DX005 (ip), vehicle: saline with Tween-80): 87 % of control
T/C (dose: 240.0 mg/kg/injection, schedule: Q01DX005 (ip), vehicle: saline with Tween-80): 86 % of control

CCCCCCCCCCCCCCOc1ccc(C(C)=O)o1
T/C [11]: 95 % of control
T/C (dose: 200.0 mg/kg/injection, schedule: Q01DX009 (ip), vehicle: saline with Tween-80): 100 % of control

COc1cccc2c1C(=O)c1c(O)c3c(c(O)c1C2=O)[C@@H](N=[N+]=[N-])[C@@](O)(C(C)=O)C[C@@H]3OC1CC(N)C(O)C(C)O1 (some centres undefined)
T/C (dose: 3.13 mg/kg/injection, schedule: Q04DX003 (ip), vehicle: water): 102 % of control
T/C (dose: 6.25 mg/kg/injection, schedule: Q04DX003 (ip), vehicle: water): 111 % of control
T/C (dose: 12.5 mg/kg/injection, schedule: Q04DX003 (ip), vehicle: water): 117 % of control and 120 % of control
T/C (dose: 25.0 mg/kg/injection, schedule: Q04DX003 (ip), vehicle: water): 122 % of control
T/C (dose: 50.0 mg/kg/injection, schedule: Q04DX003 (ip), vehicle: water): 105 % of control and 120 % of control
T/C (dose: 100.0 mg/kg/injection, schedule: Q04DX003 (ip), vehicle: water): 100 % of control

COC(=O)[C@@]1(O)CC(OC)=CC1=O
T/C (dose: 5.0 mg/kg/injection, schedule: Q01DX005 (ip), vehicle: Klucel (hydroxypropylcellulose) (HPC)): 93 % of control
T/C (dose: 10.0 mg/kg/injection, schedule: Q01DX005 (ip), vehicle: Klucel (hydroxypropylcellulose) (HPC)): 95 % of control
T/C (dose: 20.0 mg/kg/injection, schedule: Q01DX005 (ip), vehicle: Klucel (hydroxypropylcellulose) (HPC)): 100 % of control
T/C (dose: 40.0 mg/kg/injection, schedule: Q01DX005 (ip), vehicle: Klucel (hydroxypropylcellulose) (HPC)): 93 % of control
T/C (dose: 80.0 mg/kg/injection, schedule: Q01DX005 (ip), vehicle: Klucel (hydroxypropylcellulose) (HPC)): 98 % of control

CCCC1OC1(CC)COC(=O)NC (centres undefined)
T/C [4]: 100 % of control
T/C [5]: 101 % of control
T/C [12]: 117 % of control

O=C(CCn1[nH]c(=O)c(Cl)c(Cl)c1=O)NNc1ccc([N+](=O)[O-])cc1[N+](=O)[O-]
T/C [4]: 92 % of control
T/C [5]: 103 % of control
T/C [12]: 92 % of control

O=C(O)c1cocc1C(=O)O
T/C (dose: 60.0 mg/kg/injection, schedule: Q01DX005 (ip), vehicle: saline): 99 % of control
T/C (dose: 120.0 mg/kg/injection, schedule: Q01DX005 (ip), vehicle: saline): 86 % of control

CCOC(=O)C[n+]1cc2ccccc2cc1C
T/C [4]: 94 % of control
T/C [5]: 108 % of control

C=CC(=O)NCC(=O)O
T/C (dose: 50.0 mg/kg/injection, schedule: Q01DX009 (ip), vehicle: saline): 100 % of control
T/C (dose: 100.0 mg/kg/injection, schedule: Q01DX009 (ip), vehicle: saline): 103 % of control
T/C (dose: 200.0 mg/kg/injection, schedule: Q01DX009 (ip), vehicle: saline): 109 % of control

CCCCCCOCC(=O)O
T/C [11]: 102 % of control
T/C (dose: 100.0 mg/kg/injection, schedule: Q01DX009 (ip), vehicle: saline with Tween-80): 91 % of control

NC(CCl)=NC1CCCCC1
T/C (dose: 10.0 mg/kg/injection, schedule: Q04DX003 (ip), vehicle: saline): 109 % of control
T/C (dose: 15.0 mg/kg/injection, schedule: Q04DX003 (ip), vehicle: saline): 107 % of control
T/C (dose: 22.0 mg/kg/injection, schedule: Q04DX003 (ip), vehicle: saline): 111 % of control
T/C (dose: 33.0 mg/kg/injection, schedule: Q04DX003 (ip), vehicle: saline): 116 % of control

COc1ccc2c(c1)C(=O)C=C(c1ccccc1)S2(=O)=O
T/C (dose: 60.0 mg/kg/injection, schedule: Q01DX005 (ip), vehicle: Klucel (hydroxypropylcellulose) (HPC)): 110 % of control
T/C (dose: 120.0 mg/kg/injection, schedule: Q01DX005 (ip), vehicle: Klucel (hydroxypropylcellulose) (HPC)): 110 % of control
T/C (dose: 240.0 mg/kg/injection, schedule: Q01DX005 (ip), vehicle: Klucel (hydroxypropylcellulose) (HPC)): 117 % of control

C[Se](=C(C(=O)c1ccccc1)C(=O)c1ccccc1)c1ccccc1 (centres undefined)
T/C [1]: 99 % of control
T/C [2]: 100 % of control
T/C [3]: 98 % of control

COC(=O)C1=CC(=O)N2C(=Nc3cccc4cccc2c34)S1
T/C (dose: 6.25 mg/kg/injection, schedule: Q01DX005 (ip), vehicle: saline with Tween-80): 91 % of control
T/C (dose: 12.5 mg/kg/injection, schedule: Q01DX005 (ip), vehicle: saline with Tween-80): 94 % of control
T/C (dose: 25.0 mg/kg/injection, schedule: Q01DX005 (ip), vehicle: saline with Tween-80): 103 % of control
T/C [5]: 99 % of control
T/C [12]: 103 % of control

COc1ccc(-c2cc(-c3ccccc3)[nH]c(=O)c2C#N)cc1
T/C (dose: 12.5 mg/kg/injection, schedule: Q01DX009 (ip), vehicle: acid diluted with saline): 101 % of control
T/C (dose: 25.0 mg/kg/injection, schedule: Q01DX009 (ip), vehicle: acid diluted with saline): 99 % of control
T/C (dose: 50.0 mg/kg/injection, schedule: Q01DX009 (ip), vehicle: acid diluted with saline): 101 % of control

C=CCCOC1CCCCO1 (centres undefined)
T/C (dose: 50.0 mg/kg/injection, schedule: Q01DX009 (ip), vehicle: other): 104 % of control
T/C (dose: 100.0 mg/kg/injection, schedule: Q01DX009 (ip), vehicle: other): 104 % of control
T/C (dose: 200.0 mg/kg/injection, schedule: Q01DX009 (ip), vehicle: other): 100 % of control

CC(=O)C[n+]1ccccc1-c1ccccc1C
T/C [4]: 103 % of control
